{
  "source": "paper PMC5667422",
  "about": "(Theranostics, 2017)",
  "system": "integrin α2β1 expression in A549 cells",
  "test": "Integrin α2β1 expression in A549 cells after doxorubicin treatment",
  "type": "cell-based, human",
  "settings": "doxorubicin 4 μg/mL",
  "data": [
    {"smiles": "COc1cccc2c1C(=O)c1c(O)c3c(c(O)c1C2=O)C[C@@](O)(C(=O)CO)C[C@@H]3O[C@H]1C[C@H](N)[C@H](O)[C@H](C)O1", "note": "[doxorubicin]", "values": [
      {"measurement": "integrin α2 and β1 protein levels by Western blot after treatment", "setting": "48 h, semi-quantitative, p < 0.01", "value": "markedly higher level of both integrin proteins"},
      {"measurement": "integrin α2β1 expression by FACS after treatment", "setting": "48 h vs wild-type", "value": "clear shift in the abundance of integrin α2β1"}
    ]}
  ]
}
